Tests used:
[1] = tested on: A. muciniphila; assay: Cross-feeding in vitro assay, A. muciniphila growth; assay type: cell-based, Akkermansia muciniphila; conditions: exposed to P. merdae pre-treated with 500 uM for 2 hours; 24 hours after incubation; vs vehicle-treated P. merdae
Protocol: (§1) Cross-feeding was measured as previously described. A. muciniphila was embedded at 2×10^6 cfu/ml in 5 ml pre-reduced CD or KD-based liquid media supplemented with 1% agar at the bottom of an anaerobic tube, and P. merdae was overlaid above it at 6×10^6 cfu/ml in 5 ml pre-reduced M9 minimal media. Diet-based media were generated by aseptically suspending mouse KD vs. CD diets, described above, to 2 kcal/ml in M9 media. Pilot experiments confirmed no ectopic translocation of embedded A. muciniphila from the agar compartment into the above M9 liquid compartment. For each time point, aliquots were taken from the top and bottom compartments, plated in a dilution series in rich media (RCM for P. merdae and BHI+0.05% mucins for A. muciniphila), and colonies were counted. For GGsTop pre-treatment experiments, P. merdae was incubated with 500 uM GGsTop vs vehicle in RCM media at 37° C. for 2 hours and then washed with sterile media.

[2] = tested on: P. merdae; assay: Cross-feeding in vitro assay, P. merdae growth and viability; assay type: cell-based; conditions: pre-treatment 500 uM, 2 hours, pilot experiments
Protocol: as §1

[3] = tested on: Swiss Webster mice; assay: 6-Hz psychomotor seizure assay; assay type: in vivo, mouse
Protocol: All subsequent experimental cohorts contained male mice. One drop (˜50 ul) of 0.5% tetracaine hydrochloride ophthalmic solution was applied to the corneas of each mouse 10-15 min before stimulation. Corneal electrodes were coated with a thin layer of electrode gel (Parker Signagel). A constant-current current device (ECT Unit 57800, Ugo Basile) was used to deliver current at 3 sec duration, 0.2 ms pulse-width and 6 pulses/s frequency. CC50 (the intensity of current required to elicit seizures in 50% of the experimental group) was measured as a metric for seizure susceptibility. […] Each mouse was seizure-tested only once, and thus at least n>6 mice were used to adequately power each experiment group. To determine CC50s for each experimental group, 24 mA currents were administered to the first mouse per experimental group per cohort, followed by fixed increases or decreases by 2 mA intervals. […] Locomotor behavior was recorded using Ethovision XT software (Noldus) and quantitative measures for falling, tail dorsiflexion (Straub tail), forelimb clonus, eye/vibrissae twitching and behavioral remission were scored manually. […] Latency to exploration (time elapsed from when an experimental mouse is released into the observation cage (after corneal stimulation) to its first lateral movement) was scored using Ethovision and manually with an electronic timer. […]

[4] = tested on: gamma-glutamyltranspeptidase (GGT); assay: GGT activity assay in fecal samples; assay type: biochemical; conditions: fecal samples exposed in vitro, 500 uM
Protocol: GGT activity was measured as previously described in van der Stel, Frontiers in Microbiology (6), 567 (2015). For anaerobic cultures, bacteria were seeded at 3×10^5 cfu/ml in CD- and KD-based media. 1 ml bacterial suspension was pelleted and frozen at −80° C. for 1 hr. Separate aliquots of the same suspension were plated in BHI mucin agar media or RCM and incubated at 37° C. in a Coy anaerobic chamber for later data normalization by bacterial cfu. Pellets were then resuspended in 250 ul lysis buffer (50 mM Tris-HCl with 1 ug/ml lysozyme) and incubated on ice for 30 min. For fecal samples, one pellet was weighed and homogenized in 1 ml lysis buffer. Bacterial and fecal suspensions were then sonicated (QSonica 125) and centrifuged at 12000×g for 10 min at 4° C. […] Absorbance at 405 nm denoting production of 3-carboxy-4-nitroaniline was measured every minute for 1 hr at 37° C. using an automated multimode plate reader (Biotek Synergy H1).
To gain insight into whether the KD and interactions between A. muciniphila and Parabacteroides spp. suppressed bacterial gamma-glutamylation in vivo, GGT activity was measured in fecal samples collected from SPF or A. muciniphila and Parabacteroides spp.-enriched mice fed the CD or KD.

[5] = tested on: Kcna1−/− mice; assay: Kcna1 seizure recordings (EEG); assay type: in vivo, mouse; conditions: CD-fed SPF Kcna1−/− mice; 13.3 mg/kg oral gavage every 12 hours
Protocol: EEG Implantation and Recovery. EEGs were recorded from male and female Kcna1^−/− mice at 6-7 weeks of age. Kcna1^+/+ littermates were used as controls. […] Data presented include both sexes. Mice were anesthetized with isoflurane (5% induction, 2% maintenance) and eye ointment applied to each eye. Fur was removed along the head, and the area was cleaned with three alternative scrubs of chlorohexidine and 70% isopropanol. In a biosafety cabinet, mice were positioned in a stereotaxic apparatus (Harvard Biosciences) and 1 mg/kg lidocaine+1 mg/kg bupivacaine was applied locally along the incision site. […]
During EEG recordings animals were freely moving and maintained on experimental diet. […] Simultaneous video recordings of behavioral seizures were correlated with EEG recordings and scored based on an adapted Racine scale and defined by 5 stages: 1) myoclonic jerk, 2) head stereotypy and facial clonus, 3) bilateral and alternating forelimb/hindlimb clonus, 4) rearing and falling, and 5) generalized tonic-clonic episodes. Data were analyzed by a blinded researcher using Neuroscore CNS Software (DSI). EEG signals were filtered using a 10 Hz high pass filter, and seizure events were detected by blinded manual scoring. […]
For wild type mice: 4-week old SPF Swiss Webster mice were fed CD ad libitum for 14 days. […] Seizures were recorded over 3 days by EEG beginning 2 hours after the final gavage. […]

| Compound | A. muciniphila growth [1] | P. merdae viability [2] | Seizure threshold ([3]; SPF CD mice gavaged for 3 days, 13.3 mg/kg every 12 hours) | GGT activity signal of fecal samples [4] | Seizures per day [5] | Protection against 6-Hz seizures / seizure threshold ([3]; Abx-treated SPF mice gavaged with 10^9 cfu bacteria, fed KD, tested at 14 days) |
| --- | --- | --- | --- | --- | --- | --- |
| COP(=O)(CCC(N)C(=O)O)Oc1cccc(CC(=O)O)c1 (stereo not drawn) [GGsTop, 3-[[(3-amino-3-carboxypropyl)methoxyphosphinyl]oxy]benzeneacetic acid] | increased growth | no significant effect | increases in seizure thresholds | eliminated the detected signals | significant decrease in seizures per day |  |
| Bifidobacterium longum |  |  |  |  |  | no effect |

From patent US11883441B2, “Compositions and methods for inhibiting seizures” (The Regents of the University of California, priority 2016, dated 2024)
